{"source": "patent US10807970B2", "about": "(priority 2016, dated 2020)", "note": "pKi: −log10 of the molar value.", "data": [{"biological_target": "human σ1 receptor (Homo sapiens, UniProt Q99720)", "sequence (Q99720 whole entry)": "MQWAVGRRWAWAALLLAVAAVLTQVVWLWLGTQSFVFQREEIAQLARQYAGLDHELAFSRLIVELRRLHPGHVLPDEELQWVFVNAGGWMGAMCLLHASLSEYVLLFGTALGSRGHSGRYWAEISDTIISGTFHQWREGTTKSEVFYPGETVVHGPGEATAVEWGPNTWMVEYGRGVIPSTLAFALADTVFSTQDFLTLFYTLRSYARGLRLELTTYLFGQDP", "test": "Human σ1 receptor radioligand assay ([3H](+)-pentazocine, transfected HEK-293 membranes)", "format": "binding", "design": "μ and σ1 dual binding: key to the marks not given beside the values", "conditions": "one class symbol for both Ki-σ1 (human σ1 receptor, A1) and Ki-μ (human μ-opioid receptor, A2)", "summary_of_the_method": "(§1)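 Membranes from HEK-293 cells transfected with human σ1 receptor (7 μg) incubated with 5 nM [3H](+)-pentazocine in 50 mM Tris-HCl pH 8, 120 min at 37° C. Non-specific binding defined with 10 μM haloperidol. Bound radioligand separated by filtration, washed with ice-cold 10 mM Tris-HCl pH 7.4, and counted by scintillation.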", "values": [{"smiles": "CC[C@@]1(N2CCN(Cc3ccccc3)CC2)CCO[C@@H](C)C1", "note": "[Example 164, 1-benzyl-4-((2S,4R)-4-ethyl-2-methyltetrahydro-2H-pyran-4-yl)piperazine]", "μ and σ1 dual binding": "++"}, {"smiles": "CCC1(C2CCN(Cc3ccccc3)CC2)CCOC(C)(C)C1", "note": "(stereo not drawn) [Example 167, 1-Benzyl-4-(4-ethyl-2,2-dimethyltetrahydro-2H-pyran-4-yl)piperidine]", "μ and σ1 dual binding": "++"}, {"smiles": "CC(C)CCN1CCN([C@@]2(C(=O)c3ccccn3)CCO[C@@H](C)C2)CC1", "note": "[Example 168]", "μ and σ1 dual binding": "++"}, {"smiles": "CC(C)CCN1CCC([C@@]2(C(=O)c3ccccn3)CCO[C@@H](C)C2)CC1", "note": "[Example 171]", "μ and σ1 dual binding": "++"}, {"smiles": "CC(C)OCCN1CCC([C@@]2(C(=O)c3ccccn3)CCO[C@@H](C)C2)CC1", "note": "[Example 172]", "μ and σ1 dual binding": "++"}, {"smiles": "CCC1(C2CCN(CCc3ccccc3)CC2)CCOC(C)(C)C1", "note": "(stereo not drawn) [Example 173, 4-(4-ethyl-2,2-dimethyltetrahydro-2H-pyran-4-yl)-1-phenethylpiperidine]", "μ and σ1 dual binding": "++"}, {"smiles": "CCC1(N2CCN(Cc3ccc(C#N)cc3)CC2)CCOCC1", "note": "[Example 174, 4-((4-(4-ethyltetrahydro-2H-pyran-4-yl)piperazin-1-yl)methyl)benzonitrile]", "μ and σ1 dual binding": "++"}, {"smiles": "CCC1(N2CCN(Cc3ccc(F)cc3)CC2)CCOCC1", "note": "[Example 175, 1-(4-ethyltetrahydro-2H-pyran-4-yl)-4-(4-fluorobenzyl)piperazine]", "μ and σ1 dual binding": "++"}, {"smiles": "CCC1(N2CCN(CCOC(C)C)CC2)CCOCC1", "note": "[Example 176, 1-(4-ethyltetrahydro-2H-pyran-4-yl)-4-(2-isopropoxyethyl)piperazine]", "μ and σ1 dual binding": "++"}, {"smiles": "CC(C)CCN1CCN(C2(C(=O)c3ccccn3)CCOCC2)CC1", "note": "[Example 177, (4-(4-isopentylpiperazin-1-yl)tetrahydro-2H-pyran-4-yl)(pyridin-2-yl)methanone]", "μ and σ1 dual binding": "++"}, {"smiles": "CC(C)CCN1CCN(C2(C)CCOCC2)CC1", "note": "[Example 178, 1-isopentyl-4-(4-methyltetrahydro-2H-pyran-4-yl)piperazine]", "μ and σ1 dual binding": "++"}, {"smiles": "CCC1(N2CCN(CCC(C)C)CC2)CCOCC1", "note": "[Example 180, 1-(4-ethyltetrahydro-2H-pyran-4-yl)-4-isopentylpiperazine]", "μ and σ1 dual binding": "++"}, {"smiles": "O=C(c1ccccn1)C1(N2CCN(Cc3ccc(F)cc3)CC2)CCOCC1", "note": "[Example 181, (4-(4-(4-fluorobenzyl)piperazin-1-yl)tetrahydro-2H-pyran-4-yl)(pyridin-2-yl)methanone]", "μ and σ1 dual binding": "++"}, {"smiles": "CC1(N2CCN(Cc3ccc(F)cc3)CC2)CCOCC1", "note": "[Example 182, 1-(4-fluorobenzyl)-4-(4-methyltetrahydro-2H-pyran-4-yl)piperazine]", "μ and σ1 dual binding": "++"}, {"smiles": "CC1(N2CCN(Cc3ccc(C#N)cc3)CC2)CCOCC1", "note": "[Example 183, 4-((4-(4-methyltetrahydro-2H-pyran-4-yl)piperazin-1-yl)methyl)benzonitrile]", "μ and σ1 dual binding": "++"}, {"smiles": "CC(C)OCCN1CCN(C2(C)CCOCC2)CC1", "note": "[Example 184, 1-(2-isopropoxyethyl)-4-(4-methyltetrahydro-2H-pyran-4-yl)piperazine]", "μ and σ1 dual binding": "++"}, {"smiles": "CC(C)OCCN1CCN(C2(C(=O)c3ccccn3)CCOCC2)CC1", "note": "[Example 185, (4-(4-(2-isopropoxyethyl)piperazin-1-yl)tetrahydro-2H-pyran-4-yl)(pyridin-2-yl)methanone]", "μ and σ1 dual binding": "++"}, {"smiles": "CC(C)OCCN1CCN([C@@]2(C(=O)c3ccccn3)CCO[C@@H](C)C2)CC1", "note": "[Example 190, ((2S,4S)-4-(4-(2-isopropoxyethyl)piperazin-1-yl)-2-methyltetrahydro-2H-pyran-4-yl)(pyridin-2-yl)methanone]", "μ and σ1 dual binding": "++"}, {"smiles": "C[C@@H]1C[C@](C(=O)c2ccccn2)(N2CCN(CCc3ccccc3)CC2)CCO1", "note": "[Example 240, ((2R,4R)-2-methyl-4-(4-phenethylpiperazin-1-yl)tetrahydro-2H-pyran-4-yl)(pyridin-2-yl)methanone]", "μ and σ1 dual binding": "++"}, {"smiles": "CC(C)OCCN1CCN([C@]2(C(=O)c3ccccn3)CCOC2)CC1", "note": "[Example 242, (R)-(3-(4-(2-isopropoxyethyl)piperazin-1-yl)tetrahydrofuran-3-yl)(pyridin-2-yl)methanone]", "μ and σ1 dual binding": "++"}, {"smiles": "CC(C)OCCN1CCN([C@@]2(C(=O)c3ccccn3)CCOC2)CC1", "note": "[Example 243, (S)-(3-(4-(2-isopropoxyethyl)piperazin-1-yl)tetrahydrofuran-3-yl)(pyridin-2-yl)methanone]", "μ and σ1 dual binding": "++"}, {"smiles": "CC(C)OCCN1CCC([C@]2(C(=O)c3ccccn3)CCOC(C)(C)C2)CC1", "note": "[Example 244, (S)-(4-(1-(2-isopropoxyethyl)piperidin-4-yl)-2,2-dimethyltetrahydro-2H-pyran-4-yl)(pyridin-2-yl)methanone]", "μ and σ1 dual binding": "++"}, {"smiles": "CC(C)OCCN1CCC([C@@]2(C(=O)c3ccccn3)CCOC(C)(C)C2)CC1", "note": "[Example 245, (R)-(4-(1-(2-isopropoxyethyl)piperidin-4-yl)-2,2-dimethyltetrahydro-2H-pyran-4-yl)(pyridin-2-yl)methanone]", "μ and σ1 dual binding": "++"}, {"smiles": "CC(C)CCN1CCN([C@@]2(C(=O)c3ccccn3)CCO[C@@H](C)C2)CC1", "note": "[Example 247, ((2S,4S)-4-(4-isopentylpiperazin-1-yl)-2-methyltetrahydro-2H-pyran-4-yl)(pyridin-2-yl)methanone]", "μ and σ1 dual binding": "++"}, {"smiles": "CC(C)OCCN1CCC([C@]2(C(=O)c3ccccn3)CCO[C@H](C)C2)CC1", "note": "[Example 249, ((2R,4S)-4-(1-(2-isopropoxyethyl)piperidin-4-yl)-2-methyltetrahydro-2H-pyran-4-yl)(pyridin-2-yl)methanone]", "μ and σ1 dual binding": "++"}]}, {"biological_target": "human σ1 receptor (Homo sapiens, UniProt Q99720)", "test": "Human σ1 receptor radioligand assay ([3H](+)-pentazocine, transfected HEK-293 membranes)", "format": "binding", "design": "μ and σ1 dual binding: key to the marks not given beside the values", "conditions": "one class symbol for both Ki-σ1 (human σ1 receptor, A1) and Ki-μ (human μ-opioid receptor, A2); read-out: μ and σ1 dual binding", "summary_of_the_method": "as §1", "values": [{"smiles": "CC1(C2CCN(Cc3ccccc3)CC2)CCOCC1", "note": "[Example 165, 1-benzyl-4-(4-methyltetrahydro-2H-pyran-4-yl)piperidine]", "pKi": "< 6.30"}, {"smiles": "CCC1(C2CCN(Cc3ccccc3)CC2)CCOCC1", "note": "[Example 166, 1-benzyl-4-(4-ethyltetrahydro-2H-pyran-4-yl)piperidine]", "pKi": "< 6.30"}, {"smiles": "CC(C)CCN1CCN([C@]2(C(=O)c3ccccn3)CCO[C@@H](C)C2)CC1", "note": "[Example 169]", "pKi": "> 6.30"}, {"smiles": "N#Cc1cc(CN2CCN(C3(C(=O)c4ccccn4)CCOCC3)CC2)ccc1F", "note": "[Example 188, 2-fluoro-5-((4-(4-picolinoyltetrahydro-2H-pyran-4-yl)piperazin-1-yl)methyl)benzonitrile]", "pKi": "< 6.30"}, {"smiles": "CC(C)OCCN1CCN([C@]2(C(=O)c3ccccn3)CCO[C@H](C)C2)CC1", "note": "[Example 189, ((2R,4R)-4-(4-(2-isopropoxyethyl)piperazin-1-yl)-2-methyltetrahydro-2H-pyran-4-yl)(pyridin-2-yl)methanone]", "pKi": "< 6.30"}, {"smiles": "N#Cc1ccc(CN2CCN(C3(C4CC4)CCOCC3)CC2)cc1", "note": "[Example 191, 4-((4-(4-cyclopropyltetrahydro-2H-pyran-4-yl)piperazin-1-yl)methyl)benzonitrile]", "pKi": "< 6.30"}, {"smiles": "N#Cc1ccc(CN2CCN(C3(C(=O)c4ccccn4)CCOCC3)CC2)cc1F", "note": "[Example 192, 2-fluoro-4-((4-(4-picolinoyltetrahydro-2-pyran-4-yl)piperazin-1-yl)methyl)benzonitrile]", "pKi": "< 6.30"}, {"smiles": "N#Cc1cccc(CN2CCN(C3(C(=O)c4ccccn4)CCOCC3)CC2)c1", "note": "[Example 193, 3-((4-(4-picolinoyltetrahydro-2H-pyran-4-yl)piperazin-1-yl)methyl)benzonitrile]", "pKi": "< 6.30"}, {"smiles": "O=C(c1ccccn1)C1(N2CCN(Cc3ccc(OC(F)(F)F)cc3)CC2)CCOCC1", "note": "[Example 194, pyridin-2-yl(4-(4-(4-(trifluoromethoxy)benzyl)piperazin-1-yl)tetrahydro-2H-pyran-4-yl)methanone]", "pKi": "< 6.30"}, {"smiles": "COc1ccc(CN2CCN(C3(C(=O)c4ccccn4)CCOCC3)CC2)cc1", "note": "[Example 195, (4-(4-(4-methoxybenzyl)piperazin-1-yl)tetrahydro-2H-pyran-4-yl)(pyridin-2-yl)methanone]", "pKi": "< 6.30"}, {"smiles": "COc1ccc(CN2CCN(C3(C(=O)c4ccccn4)CCOCC3)CC2)cc1F", "note": "[Example 196, (4-(4-(3-fluoro-4-methoxybenzyl)piperazin-1-yl)tetrahydro-2H-pyran-4-yl)(pyridin-2-yl)methanone]", "pKi": "< 6.30"}, {"smiles": "O=C(c1ccccn1)C1(N2CCN(Cc3ccc(F)c(F)c3)CC2)CCOCC1", "note": "[Example 197, (4-(4-(3,4-difluorobenzyl)piperazin-1-yl)tetrahydro-2H-pyran-4-yl)(pyridin-2-yl)methanone]", "pKi": "< 6.30"}, {"smiles": "COc1cc(CN2CCN(C3(C(=O)c4ccccn4)CCOCC3)CC2)ccc1F", "note": "[Example 198, (4-(4-(4-fluoro-3-methoxybenzyl)piperazin-1-yl)tetrahydro-2H-pyran-4-yl)(pyridin-2-yl)methanone]", "pKi": "< 6.30"}, {"smiles": "C[C@H]1C[C@@](C(=O)c2ccccn2)(N2CCN(CCc3ccccc3)CC2)CCO1", "note": "[Example 241, ((2S,4S)-2-methyl-4-(4-phenethylpiperazin-1-yl)tetrahydro-2H-pyran-4-yl)(pyridin-2-yl)methanone]", "pKi": "> 6.30"}, {"smiles": "CC(C)CCN1CCN([C@]2(C(=O)c3ccccn3)CCO[C@H](C)C2)CC1", "note": "[Example 246, ((2R,4R)-4-(4-isopentylpiperazin-1-yl)-2-methyltetrahydro-2H-pyran-4-yl)(pyridin-2-yl)methanone]", "pKi": "> 6.30"}]}, {"biological_target": "human σ1 receptor (Homo sapiens, UniProt Q99720)", "test": "Human σ1 receptor radioligand assay ([3H](+)-pentazocine, transfected HEK-293 membranes)", "format": "binding", "design": "μ and σ1 dual binding: key to the marks not given beside the values", "conditions": "μ and σ1 dual binding, one class symbol for both Ki-σ1 (human σ1 receptor, A1) and Ki-μ (human μ-opioid receptor, A2)", "summary_of_the_method": "as §1", "values": [{"smiles": "C[C@H]1C[C@@](C(=O)c2ccccn2)(N2CCN(CCc3ccccc3F)CC2)CCO1", "note": "[Example 170]", "pKi": "> 6.30"}, {"smiles": "CC(C)OCCN1CCC([C@@]2(C(=O)c3ccccn3)CCO[C@@H](C)C2)CC1", "note": "[Example 248, ((2S,4R)-4-(1-(2-isopropoxyethyl)piperidin-4-yl)-2-methyltetrahydro-2H-pyran-4-yl)(pyridin-2-yl)methanone]", "pKi": "> 6.30"}]}]}
